# Experiments:
# 2.2.15 cells = experiment: Antiviral activity in 2.2.15 cells: reduction of viral product accumulation (qPCR, HBsAg/HBeAg ELISA); format: cell-based, HBV; conditions: Hepatitis B virus, 120 h, day 5 post treatment, concentration reducing viral product accumulation in cell lysates or supernatants by 50% relative to no drug controls
# Description: 2.2.15 cells are passaged upon attaining confluency in DMEM/F12 media in the presence of 10% FBS, Penn/Strep, and 250 ug/mL G418. Novel compounds are 5 fold serially diluted in DMSO and added to 96 well plates containing 35,000 cells/well at a 1:200 dilution so that the final concentration of DMSO is 0.5%. On day 5, post treatment cell lysates and supernatants are harvested for analysis.
# Cells are lysed using Agilent Sidestep Lysis buffer, diluted 1:100 and quantified via quantitative real time PCR. Commercially available ELISA kits are used to quantitate the viral proteins HBsAg (Alpco) or HBeAg (US Biological) by following the manufacturer's recommended protocol after diluting samples to match the linear range of their respective assays. Irrespective of readout, compound concentrations that reduce viral product accumulation in the cell lysates or supernatants by 50% relative to no drug controls (EC50) are reported; EC50 ranges are as follows: A<0.1 μM; B 0.1-1 μM; C>1 μM.
# [1] = Compound induced cellular toxicity in HepG2 cells (ATPlite); format: cell-based; conditions: human, three days, ATPlite 1 Step, concentration reducing total ATP levels by 50% relative to no drug controls
# Description: At day 3, post seeding cells are treated with ATPlite 1 Step according to the manufacturer's instructions.
SMILES,EC50 (2.2.15 cells) [µM],CC50 at 3 days [1] [µM]
"CC(C)(C)[C@@H]1Cc2c(oc3c(-c4cscn4)cccc23)-c2cc(=O)c(C(=O)O)cn21 [Example 39, (S)-6-(tert-butyl)-2-oxo-11-(thiazol-4-yl)-6,7-dihydro-2H-benzofuro[2,3-a]quinolizine-3-carboxylic acid]",< 0.1,10 to 25
"CC(C)(C)[C@@H]1Cc2c(oc3c(-c4nccs4)cccc23)-c2cc(=O)c(C(=O)O)cn21 [Example 41, (S)-6-(tert-butyl)-2-oxo-11-(thiazol-2-yl)-6,7-dihydro-2H-benzofuro[2,3-a]quinolizine-3-carboxylic acid]",< 0.1,10 to 25
"CC(C)(C)[C@@H]1Cc2c(oc3c(-n4cccn4)cccc23)-c2cc(=O)c(C(=O)O)cn21 [Example 42, (S)-6-(tert-butyl)-2-oxo-11-(1H-pyrazol-1-yl)-6,7-dihydro-2H-benzofuro[2,3-a]quinolizine-3-carboxylic acid]",< 0.1,> 25
"CC(C)(C)[C@@H]1Cc2c(oc3c(C4CC4)cccc23)-c2cc(=O)c(C(=O)O)cn21 [Example 43, (S)-6-(tert-butyl)-11-cyclopropyl-2-oxo-6,7-dihydro-2H-benzofuro[2,3-a]quinolizine-3-carboxylic acid]",< 0.1,10 to 25
"COc1cccc2c3c(oc12)-c1cc(=O)c(C(=O)O)cn1[C@H](C(C)(C)C)C3 [Example 45, (S)-6-(tert-butyl)-11-methoxy-2-oxo-6,7-dihydro-2H-benzofuro[2,3-a]quinolizine-3-carboxylic acid]",< 0.1,> 25
"CC(C)(C)[C@@H]1Cc2c(oc3c(OC4COC4)cccc23)-c2cc(=O)c(C(=O)O)cn21 [Example 46, (S)-6-(tert-butyl)-11-(oxetan-3-yloxy)-2-oxo-6,7-dihydro-2H-benzofuro[2,3-a]quinolizine-3-carboxylic acid]",< 0.1,> 25
"CC(C)(C)[C@@H]1Cc2c(oc3c(OC4CC4)cccc23)-c2cc(=O)c(C(=O)O)cn21 [Example 47, (S)-6-(tert-butyl)-11-cyclopropoxy-2-oxo-6,7-dihydro-2H-benzofuro[2,3-a]quinolizine-3-carboxylic acid]",< 0.1,10 to 25
"CC(C)(C)[C@@H]1Cc2c(oc3c(-c4ccoc4)cccc23)-c2c(F)c(=O)c(C(=O)O)cn21 [Example 48, (S)-6-(tert-butyl)-1-fluoro-11-(furan-3-yl)-2-oxo-6,7-dihydro-2H-benzofuro[2,3-a]quinolizine-3-carboxylic acid]",< 0.1,> 25
"CC(C)(C)[C@@H]1Cc2c(oc3c(-c4ccco4)cccc23)-c2c(F)c(=O)c(C(=O)O)cn21 [Example 49, (S)-6-(tert-butyl)-1-fluoro-11-(furan-2-yl)-2-oxo-6,7-dihydro-2H-benzofuro[2,3-a]quinolizine-3-carboxylic acid]",< 0.1,> 25
"CC(C)(C)[C@@H]1Cc2c(oc3c(-c4cn[nH]c4)cccc23)-c2c(F)c(=O)c(C(=O)O)cn21 [Example 50, (S)-6-(tert-butyl)-1-fluoro-2-oxo-11-(1H-pyrazol-4-yl)-6,7-dihydro-2H-benzofuro[2,3-a]quinolizine-3-carboxylic acid]",< 0.1,> 25
"CC(C)(C)[C@@H]1Cc2c(oc3c(-c4ccn[nH]4)cccc23)-c2c(F)c(=O)c(C(=O)O)cn21 [Example 51, (S)-6-(tert-butyl)-1-fluoro-2-oxo-11-(1H-pyrazol-5-yl)-6,7-dihydro-2H-benzofuro[2,3-a]quinolizine-3-carboxylic acid]",< 0.1,> 25
"CC(C)(C)[C@@H]1Cc2c(oc3c(-c4cnsc4)cccc23)-c2c(F)c(=O)c(C(=O)O)cn21 [Example 52, (S)-6-(tert-butyl)-1-fluoro-11-(isothiazol-4-yl)-2-oxo-6,7-dihydro-2H-benzofuro[2,3-a]quinolizine-3-carboxylic acid]",< 0.1,> 25
"CC(C)(C)[C@@H]1Cc2c(oc3c(C#N)cccc23)-c2c(F)c(=O)c(C(=O)O)cn21 [Example 53, (S)-6-(tert-butyl)-11-cyano-1-fluoro-2-oxo-6,7-dihydro-2H-benzofuro[2,3-a]quinolizine-3-carboxylic acid]",< 0.1,> 25
"CC(C)(C)[C@@H]1Cc2c(oc3c(-c4cccs4)cccc23)-c2c(F)c(=O)c(C(=O)O)cn21 [Example 54, (S)-6-(tert-butyl)-1-fluoro-2-oxo-11-(thiophen-2-yl)-6,7-dihydro-2H-benzofuro[2,3-a]quinolizine-3-carboxylic acid]",< 0.1,> 25
"Cn1cc(-c2cccc3c4c(oc23)-c2c(F)c(=O)c(C(=O)O)cn2[C@H](C(C)(C)C)C4)cn1 [Example 55, (S)-6-(tert-butyl)-1-fluoro-11-(1-methyl-1H-pyrazol-4-yl)-2-oxo-6,7-dihydro-2H-benzofuro[2,3-a]quinolizine-3-carboxylic acid]",< 0.1,> 25
"CC(C)(C)[C@@H]1Cc2c(oc3c(-c4ccsc4)cccc23)-c2c(F)c(=O)c(C(=O)O)cn21 [Example 57, (S)-6-(tert-butyl)-1-fluoro-2-oxo-11-(thiophen-3-yl)-6,7-dihydro-2H-benzofuro[2,3-a]quinolizine-3-carboxylic acid]",< 0.1,> 25
"CC(C)(C)[C@@H]1Cc2c(oc3c(-c4cnco4)cccc23)-c2c(F)c(=O)c(C(=O)O)cn21 [Example 58, (S)-6-(tert-butyl)-1-fluoro-11-(oxazol-5-yl)-2-oxo-6,7-dihydro-2H-benzofuro[2,3-a]quinolizine-3-carboxylic acid]",< 0.1,> 25
"Cn1nccc1-c1cccc2c3c(oc12)-c1c(F)c(=O)c(C(=O)O)cn1[C@H](C(C)(C)C)C3 [Example 59, (S)-6-(tert-butyl)-1-fluoro-11-(1-methyl-1H-pyrazol-5-yl)-2-oxo-6,7-dihydro-2H-benzofuro[2,3-a]quinolizine-3-carboxylic acid]",< 0.1,> 25
"CC(C)(C)[C@@H]1Cc2c(oc3c(-c4nccs4)cccc23)-c2c(F)c(=O)c(C(=O)O)cn21 [Example 61, (S)-6-(tert-butyl)-1-fluoro-2-oxo-11-(thiazol-2-yl)-6,7-dihydro-2H-benzofuro[2,3-a]quinolizine-3-carboxylic acid]",< 0.1,> 25
"CC(C)(C)[C@@H]1Cc2c(oc3c(-c4cscn4)cccc23)-c2c(F)c(=O)c(C(=O)O)cn21 [Example 62, (S)-6-(tert-butyl)-1-fluoro-2-oxo-11-(thiazol-4-yl)-6,7-dihydro-2H-benzofuro[2,3-a]quinolizine-3-carboxylic acid]",< 0.1,10 to 25
"CC(C)(C)[C@@H]1Cc2c(oc3c(-n4cccn4)cccc23)-c2c(F)c(=O)c(C(=O)O)cn21 [Example 63, (S)-6-(tert-butyl)-1-fluoro-2-oxo-11-(1H-pyrazol-1-yl)-6,7-dihydro-2H-benzofuro[2,3-a]quinolizine-3-carboxylic acid]",< 0.1,> 25
"Cc1cccc2c3c(oc12)-c1c(F)c(=O)c(C(=O)O)cn1[C@H](C(C)(C)C)C3 [Example 64, (S)-6-(tert-butyl)-1-fluoro-11-methyl-2-oxo-6,7-dihydro-2H-benzofuro[2,3-a]quinolizine-3-carboxylic acid]",< 0.1,> 25
"CC(C)(C)[C@@H]1Cc2c(oc3c(C4CC4)cccc23)-c2c(F)c(=O)c(C(=O)O)cn21 [Example 65, (S)-6-(tert-butyl)-11-cyclopropyl-1-fluoro-2-oxo-6,7-dihydro-2H-benzofuro[2,3-a]quinolizine-3-carboxylic acid]",< 0.1,> 25
"CC(C)[C@@H]1Cc2c(oc3c(-c4ccoc4)cccc23)-c2cc(=O)c(C(=O)O)cn21 [Example 66, (S)-11-(furan-3-yl)-6-isopropyl-2-oxo-6,7-dihydro-2H-benzofuro[2,3-a]quinolizine-3-carboxylic acid]",< 0.1,10 to 25
"CC(C)[C@@H]1Cc2c(oc3c(-c4ccco4)cccc23)-c2cc(=O)c(C(=O)O)cn21 [Example 67, (S)-11-(furan-2-yl)-6-isopropyl-2-oxo-6,7-dihydro-2H-benzofuro[2,3-a]quinolizine-3-carboxylic acid]",< 0.1,10 to 25
"CC(C)[C@@H]1Cc2c(oc3cc(OC(F)F)ccc23)-c2cc(=O)c(C(=O)O)cn21 [Example 68, (S)-10-(difluoromethoxy)-6-isopropyl-2-oxo-6,7-dihydro-2H-benzofuro[2,3-a]quinolizine-3-carboxylic acid]",< 0.1,< 10
"CC(C)[C@@H]1Cc2c(oc3cc(C#N)ccc23)-c2cc(=O)c(C(=O)O)cn21 [Example 69, (S)-10-cyano-6-isopropyl-2-oxo-6,7-dihydro-2H-benzofuro[2,3-a]quinolizine-3-carboxylic acid]",< 0.1,> 25
"CC(C)[C@@H]1Cc2c(oc3c(-c4cnsc4)cccc23)-c2cc(=O)c(C(=O)O)cn21 [Example 70, (S)-6-isopropyl-11-(isothiazol-4-yl)-2-oxo-6,7-dihydro-2H-benzofuro[2,3-a]quinolizine-3-carboxylic acid]",< 0.1,> 25
